According to US20240252677A1, “ONE-COMPONENT DELIVERY SYSTEM FOR NUCLEIC ACIDS” (The Trustees of the University of Pennsylvania, priority 2021, published 2024):

Tests used:
[1] = tested on: lung; assay: In vivo mRNA delivery, IVIS imaging of organs: lung; parameters: species or system mice; key to Organs with luminescence: lung: strong: Strong meant the luminescence intensity in that organ was relatively high, compared to other organs; weak: Weak meant the luminescence intensity in that organ was relatively low, compared to other organs; details: Table 17; mice, IVIS, 4-6 h after injection; intensity relative to other organs
[2] = Stability of DNPs by DLS after storage at 5° C.; assay type: physicochemical; parameters: key: Excellent: the original sizes and distribution types remained almost the same after storage; Good: the original sizes and distribution types changed slightly (size difference was less than 100 nm) or the original size remained almost the same but the DLS curve showed more size distributions after storage
Description: (§1) The stability of the DNPs as assayed by DLS. All the samples are prepared in acetate buffer. The stabilities of the constructs were ranked: Excellent (in bold)—the original sizes and distribution remains almost the same after storage; Good—the original relatively big sizes became smaller or broad size distribution became narrower; Not stable—the original relatively big sizes or broad size distribution remained almost the similar level, or the original relatively small sizes became bigger or narrow size distribution became broader.

[3] = pKa measurements of individual IAJD molecules by titration; assay type: physicochemical; details: ethanol saturated with NaCl, titrated with 0.1 M aqueous HCl; individual IAJD molecules, titration
Outline: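 pKa derived by half-equivalence-point analysis of a pH-meter titration curve: 0.1 M HCl added in 7.5 μL increments to a 1.5 mg/mL solution of each molecule in ethanol saturated with NaCl.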

[4] = Stability of DNPs by DLS after storage at 5° C.; assay type: physicochemical; parameters: key to Original size distribution type (DLS curve) / Size distribution type (DLS curve): U: DLS curve showed unimodal size distribution; B: DLS curve showed bimodal size distribution; M: DLS curve showed multimodal size distribution; details: for pH Sample: DNPs: IAJD 4.0 mg/mL + Luc-mRNA 0.1 mg/mL, injection in acetate buffer pH 4.00; for PDI / Size (d, nm) / Original size distribution type (DLS curve): IAJD 4.0 mg/mL + Luc-mRNA 0.1 mg/mL; for PDI / Size (d, nm): acetate buffer; for Original size distribution type (DLS curve): before storage, acetate buffer pH 4.00
Description: as §1

[5] = Dimensions (size, PDI) of DNPs co-assembled from IAJDs and Luc-mRNA by DLS; assay type: physicochemical
Outline: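 Hydrodynamic size and PDI were read by dynamic light scattering at 23 °C, 175° backscatter, 633 nm. Particles formed by fast injection of ethanolic IAJD stock (80 mg/mL) into nucleoside-modified luciferase mRNA (stock 4.0 mg/mL) in 10 mM acetate pH 4.0, 5 s vortex.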

[6] = tested on: liver; assay: In vivo mRNA delivery, IVIS imaging of organs: liver; parameters: species or system mice; key to Organs with luminescence: liver: strong: Strong meant the luminescence intensity in that organ was relatively high, compared to other organs; weak: Weak meant the luminescence intensity in that organ was relatively low, compared to other organs; details: Table 17; mice, IVIS, 4-6 h after injection; intensity relative to other organs
[7] = Table 16, DNPs from IAJD 4 mg/mL and Luc-mRNA 0.10 mg/mL by injection in acetate buffer (10 mM, pH 4.0)
[8] = Table 17, DNPs used in vivo, IAJD 4 mg/mL, Luc-mRNA 0.10 mg/mL, acetate pH 4.0

| SMILES | pKa [3] | pH Sample [4] | Original size distribution type (DLS curve) [4] | PDI [5, 7] | Size (d, nm) [5, 7] [nm] | PDI [5, 8] | Size (d, nm) [5, 8] [nm] | Ranking of stability ([2]; after 19 days at 5° C.) | Size distribution type (DLS curve) ([4]; after 19 days at 5° C.) | PDI ([4]; after 19 days at 5° C.) | Size (d, nm) ([4]; after 19 days at 5° C.) [nm] | Organs with luminescence: lung [1] | also measured |
| --- | --- | --- | --- | --- | --- | --- | --- | --- | --- | --- | --- | --- | --- |
| CCCCCCCCCCCOc1cc(COC(=O)CCCN2CCN(CCO)CC2)cc(OCCCCCCCCCC)c1 [IAJD 115, 3-(Decyloxy)-5-(undecyloxy)benzyl 4-(4-(2-hydroxyethyl)piperazin-1-yl)butanoate] | 6.32 | 4.44 | (U) | 0.367 | 123 | 0.367 | 123 |  |  |  |  | Lung (weak), | Ranking of stability ([2]; after 70 days at 5° C.): Excellent; Size distribution type (DLS curve) ([4]; after 70 days at 5° C.): (U); PDI ([4]; after 70 days at 5° C.): 0.383; Size (d, nm) ([4]; after 70 days at 5° C.): 134 nm |
| CCCCCCCCCCCOc1cc(COC(=O)CCCN2CCN(CCO)CC2)cc(OCCCCCCCCC)c1 [IAJD 122, 3-(Nonyloxy)-5-(undecyloxy)benzyl 4-(4-(2-hydroxyethyl)piperazin-1-yl)butanoate] | 6.66 | 4.49 | (B) | 0.337 | 215 | 0.337 | 215 |  |  |  |  | Lung (weak), | Ranking of stability ([2]; after 62 days at 5° C.): Excellent; Size distribution type (DLS curve) ([4]; after 62 days at 5° C.): (B); PDI ([4]; after 62 days at 5° C.): 0.346; Size (d, nm) ([4]; after 62 days at 5° C.): 192 nm |
| CCCCCCCCCCCCOc1cc(COC(=O)CCCN2CCN(CCO)CC2)cc(OCCCCCCCCCCC)c1 [IAJD 124, 3-(Dodecyloxy)-5-(undecyloxy)benzyl 4-(4-(2-hydroxyethyl)piperazin-1-yl)butanoate] | 6.65 | 4.51 | (U) | 0.280 | 276 | 0.280 | 276 |  |  |  |  | Lung (weak), | Ranking of stability ([2]; after 62 days at 5° C.): Good; Size distribution type (DLS curve) ([4]; after 62 days at 5° C.): (B); PDI ([4]; after 62 days at 5° C.): 0.240; Size (d, nm) ([4]; after 62 days at 5° C.): 284 nm |
| CCCCCCCCCCCCCCOc1cc(CNC(=O)CCCN2CCN(C)CC2)cc(OCCCCCCCCCCC)c1 [IAJD 133, 4-(4-Methylpiperazin-1-yl)-N-(3-(tetradecyloxy)-5-(undecyloxy)benzyl)butanamide] | 6.57 | 4.63 | (B) | 0.414 | 228 | 0.414 | 228 |  |  |  |  | Lung (strong), | Ranking of stability ([2]; after 42 days at 5° C.): Excellent; Size distribution type (DLS curve) ([4]; after 42 days at 5° C.): (B); PDI ([4]; after 42 days at 5° C.): 0.454; Size (d, nm) ([4]; after 42 days at 5° C.): 216 nm |
| CCCCCCCCCCCCCCCOc1cc(COC(=O)CCCN2CCN(CCO)CC2)cc(OCCCCCCCC)c1 [IAJD 138, 3-(Octyloxy)-5-(pentadecyloxy)benzyl 4-(4-(2-hydroxyethyl)piperazin-1-yl)butanoate] | 6.62 | 4.52 | (U) | 0.305 | 99 | 0.305 | 99 |  |  |  |  | Lung (weak), | Ranking of stability ([2]; after 35 days at 5° C.): Good; Size distribution type (DLS curve) ([4]; after 35 days at 5° C.): (B); PDI ([4]; after 35 days at 5° C.): 0.261; Size (d, nm) ([4]; after 35 days at 5° C.): 112 nm |
| CCCCCCCCCCCCCCCCCOc1cc(COC(=O)CCCN2CCN(CCO)CC2)cc(OCCCCCCCCCCCCCCC)c1 [IAJD 152, 3-(Heptadecyloxy)-5-(pentadecyloxy)benzyl 4-(4-(2-hydroxyethyl)piperazin-1-yl)butanoate] | 6.65 | 4.45 | (B) | 0.370 | 281 | 0.370 | 281 |  |  |  |  |  | Ranking of stability ([2]; after 35 days at 5° C.): Excellent; Organs with luminescence: liver [6]: Liver (weak),; Size distribution type (DLS curve) ([4]; after 35 days at 5° C.): (U); PDI ([4]; after 35 days at 5° C.): 0.286; Size (d, nm) ([4]; after 35 days at 5° C.): 253 nm |
| CCCCCCCCCCCOc1cc(COC(=O)c2cc(OCCOCCOCCCC(=O)CCCN3CCCCC3)c(OCCOCCOCCOCc3ccccc3)c(OCCOCCOCCOC(=O)CCCN3CCCCC3)c2)cc(OCC(CC)CCCC)c1 (stereo not drawn) [IAJD 155] | 7.4 | 4.93 | (U) | 0.279 | 83 | 0.279 | 83 | Excellent | (U) | 0.259 | 86 | Lung (strong), |  |

Continued, in another order:

| pKa [3] | pH Sample [4] | Original size distribution type (DLS curve) [4] | PDI [5, 7] | Size (d, nm) [5, 7] [nm] | PDI [5, 8] | Size (d, nm) [5, 8] [nm] | Ranking of stability ([2]; after 19 days at 5° C.) | Size distribution type (DLS curve) ([4]; after 19 days at 5° C.) | PDI ([4]; after 19 days at 5° C.) | Size (d, nm) ([4]; after 19 days at 5° C.) [nm] | SMILES | Organs with luminescence: lung [1] | also measured |
| --- | --- | --- | --- | --- | --- | --- | --- | --- | --- | --- | --- | --- | --- |
| 7.43 | 4.82 | (U) | 0.236 | 75 | 0.236 | 75 | Excellent | (U) | 0.242 | 78 | CCCCCCCCCCCCCCOc1cc(COC(=O)c2cc(OCCOCCOCCCC(=O)CCCN3CCCCC3)c(OCCOCCOCCOCc3ccccc3)c(OCCOCCOCCOC(=O)CCCN3CCCCC3)c2)cc(OCCCCCCCCCCC)c1 [IAJD 156] | Lung (strong) |  |
| 7.42 | 4.84 | (U) | 0.238 | 68 | 0.238 | 68 | Excellent | (U) | 0.255 | 71 | CCCCCCCCCCCCCCCOc1cc(COC(=O)c2cc(OCCOCCOCCCC(=O)CCCN3CCCCC3)c(OCCOCCOCCOCc3ccccc3)c(OCCOCCOCCOC(=O)CCCN3CCCCC3)c2)cc(OCCCCCCCCCCC)c1 [IAJD 157] | Lung (strong) |  |
| 7.38 | 4.83 | (U) | 0.246 | 75 | 0.246 | 75 | Excellent | (U) | 0.258 | 77 | CCCCCCCCCCCCCCCCCOc1cc(COC(=O)c2cc(OCCOCCOCCCC(=O)CCCN3CCCCC3)c(OCCOCCOCCOCc3ccccc3)c(OCCOCCOCCOC(=O)CCCN3CCCCC3)c2)cc(OCCCCCCCCCCC)c1 [IAJD 158] | Lung (strong) |  |
| 7.4 | 4.72 | (U) | 0.218 | 91 | 0.218 | 91 |  |  |  |  | CCCCCCCCCCCCCCCCCOc1cc(CNC(=O)c2cc(OCCOCCOCCOC(=O)CCCN3CCCCC3)c(OCCCOCOCCOCc3ccccc3)c(OCCOCCOCCOC(=O)CCCN3CCCCC3)c2)cc(OCCCCCCCCCCCCCCCCC)c1 [IAJD 159] | Lung (strong) | Ranking of stability ([2]; after 11 days at 5° C.): Excellent; Size distribution type (DLS curve) ([4]; after 11 days at 5° C.): (U); PDI ([4]; after 11 days at 5° C.): 0.220; Size (d, nm) ([4]; after 11 days at 5° C.): 93 nm |
